# From the supplement of paper PMC4862054
# What was measured:
# Conditions in all cases: incubation time: 72 h
# CAL-51 [1] = experiment: normalised response (% of control), CellTiter-Glo; higher = more viable cells (100 = DMSO, 0 = benzethonium chloride kill control)
# How it was run: (§1)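 Plates were normalised with 0.1 % DMSO as 100 and a positive kill control as 0. Breast cancer cell lines in 20 µl suspension had been seeded into 384-well plates with compound at 5 concentrations in 10-fold steps over a compound-specific 10,000-fold range, incubated 72 h, and read for CellTox Green fluorescence (485/520 nm) followed by CellTiter-Glo luminescence. Each value is the normalised signal at a single concentration.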
# CAL-120 [2] = experiment: as above
# How it was run: as §1
# MDA-MB-231 [3] = experiment: as above
# How it was run: as §1
# MCF-10A [4] = experiment: as above
# How it was run: as §1
# BT-549 [5] = experiment: as above
# How it was run: as §1
# HCC1599 [6] = experiment: as above
# How it was run: as §1
# CAL-85-1 [7] = experiment: as above
# How it was run: as §1
# Hs578T [8] = experiment: as above
# How it was run: as §1
# BT-474 [9] = experiment: as above
# How it was run: as §1
# HCC1143 [10] = experiment: as above
# How it was run: as §1
# DU-4475 [11] = experiment: as above
# How it was run: as §1
# CAL-148 [12] = experiment: as above
# How it was run: as §1
# HDQ-P1 [13] = experiment: as above
# How it was run: as §1
# HCC1937 [14] = experiment: as above
# How it was run: as §1
# SK-BR-3 = experiment: as above
# How it was run: as §1
# MDA-MB-436 [15] = experiment: as above
# How it was run: as §1
# MDA-MB-468 [16] = experiment: as above
# How it was run: as §1
# MDA-MB-453 [17] = experiment: as above
# How it was run: as §1
# MFM-223 [18] = experiment: as above
# How it was run: as §1
# CAL-51 [19] = experiment: normalised response (% of control), CellTox Green; higher = less cell death (100 = DMSO, 0 = benzethonium chloride kill control)
# How it was run: as §1
# CAL-120 [20] = experiment: as above
# How it was run: as §1
# MDA-MB-231 [21] = experiment: as above
# How it was run: as §1
# BT-549 [22] = experiment: as above
# How it was run: as §1
# HCC1599 [23] = experiment: as above
# How it was run: as §1
# CAL-85-1 [24] = experiment: as above
# How it was run: as §1
# Hs578T [25] = experiment: as above
# How it was run: as §1
# BT-474 [26] = experiment: as above
# How it was run: as §1
# HCC1143 [27] = experiment: as above
# How it was run: as §1
# DU-4475 [28] = experiment: as above
# How it was run: as §1
# CAL-148 [29] = experiment: as above
# How it was run: as §1
# HDQ-P1 [30] = experiment: as above
# How it was run: as §1
# HCC1937 [31] = experiment: as above
# How it was run: as §1
# MDA-MB-436 [32] = experiment: as above
# How it was run: as §1
# MDA-MB-468 [33] = experiment: as above
# How it was run: as §1
# MDA-MB-453 [34] = experiment: as above
# How it was run: as §1
# MFM-223 [35] = experiment: as above
# How it was run: as §1
# MCF-10A [36] = experiment: as above
# How it was run: as §1
Compound,normalised response (CAL-51 [1]),normalised response (CAL-120 [2]),normalised response (MDA-MB-231 [3]),normalised response (MCF-10A [4]),normalised response (BT-549 [5]),normalised response (HCC1599 [6]),normalised response (CAL-85-1 [7]),normalised response (Hs578T [8]),normalised response (BT-474 [9]),normalised response (HCC1143 [10]),normalised response (DU-4475 [11]),normalised response (CAL-148 [12]),normalised response (HDQ-P1 [13]),normalised response (HCC1937 [14]),normalised response (SK-BR-3),normalised response (MDA-MB-436 [15]),normalised response (MDA-MB-468 [16]),normalised response (MDA-MB-453 [17]),normalised response (MFM-223 [18]),normalised response (CAL-51 [19]),normalised response (CAL-120 [20]),normalised response (MDA-MB-231 [21]),normalised response (BT-549 [22]),normalised response (HCC1599 [23]),normalised response (CAL-85-1 [24]),normalised response (Hs578T [25]),normalised response (BT-474 [26]),normalised response (HCC1143 [27]),normalised response (DU-4475 [28]),normalised response (CAL-148 [29]),normalised response (HDQ-P1 [30]),normalised response (HCC1937 [31]),normalised response (MDA-MB-436 [32]),normalised response (MDA-MB-468 [33]),normalised response (MDA-MB-453 [34]),normalised response (MFM-223 [35]),normalised response (MCF-10A [36])
Nc1ncnc2c1c(COc1cccc(Cl)c1)nn2C1CCOCC1 (1000 nM),105%,111%,104%,104%,88.6%,113%,93.4%,97.1%,104%,104%,102%,102%,107%,103%,107%,106%,96.6%,103%,104%,118%,103%,115%,96.5%,74.4%,108%,104%,98.3%,119%,108%,105%,114%,124%,107%,99.3%,110%,103%,–
COc1ccc(-c2ccc3c(N4CCOC[C@@H]4C)nc(N4CCOC[C@@H]4C)nc3n2)cc1CO [AZD8055] (1000 nM),20.3%,18%,36.5%,27.8%,21.5%,67.2%,25.3%,29.4%,46.6%,24.2%,23.2%,13.9%,32.3%,45.7%,20.3%,45.8%,23.6%,31.3%,27.6%,80.1%,96%,87.4%,116%,94.2%,87.8%,102%,86.1%,74.1%,83.3%,39.6%,103%,56.8%,92.4%,118%,104%,93.6%,91.7%
C[C@]12CC[C@H](O)CC1=CC[C@@H]1[C@@H]2CC[C@]2(C)C(c3cccnc3)=CC[C@@H]12 [Abiraterone] (500 nM),65.6%,97.1%,105%,112%,99.1%,107%,104%,106%,90.7%,98.8%,105%,105%,99.2%,98.7%,103%,96%,98%,99.3%,101%,101%,99.1%,127%,135%,110%,96%,114%,103%,104%,101%,94.8%,108%,123%,88.8%,92%,104%,104%,102%
CC(C)(C#N)c1cc(Cn2cncn2)cc(C(C)(C)C#N)c1 [Anastrozole] (1000 nM),122%,96.7%,106%,105%,99.2%,123%,103%,103%,104%,101%,98.2%,93.3%,96.5%,94.5%,108%,100%,106%,96.9%,105%,113%,101%,104%,106%,102%,110%,62.7%,99.8%,61.9%,100%,93.9%,111%,106%,103%,85.1%,96.5%,101%,105%
CC(C)c1c(C(=O)Nc2ccccc2)c(-c2ccccc2)c(-c2ccc(F)cc2)n1CC[C@@H](O)C[C@@H](O)CC(=O)O [Atorvastatin] (1000 nM),90.2%,90.5%,59.1%,84%,95.6%,95.6%,91.9%,101%,66.1%,93.4%,99.9%,105%,74.8%,96.6%,102%,92.6%,93.2%,99.4%,99.1%,–,98.2%,34%,97.4%,100%,110%,97.4%,99.9%,114%,101%,103%,103%,88.3%,96.6%,87.3%,94.1%,89.4%,83.6%
O=C(O)CCCc1ccc(N(CCCl)CCCl)cc1 [Chlorambucil] (1000 nM),108%,94.7%,99.8%,102%,111%,91.9%,103%,105%,96.7%,100%,105%,95.5%,97.4%,95%,101%,103%,101%,102%,103%,113%,98.5%,103%,115%,96.9%,110%,108%,98.2%,98.2%,102%,104%,103%,85.3%,93.3%,103%,100%,95.5%,–
Cn1c(=O)n(-c2ccc(C(C)(C)C#N)cc2)c2c3cc(-c4cnc5ccccc5c4)ccc3ncc21 [Dactolisib] (100 nM),31.7%,29.1%,50.4%,45.2%,23.8%,80.4%,39.9%,35.2%,62.1%,45.5%,41%,30.4%,52.7%,57.3%,30%,62%,39%,38.8%,39.1%,104%,89.3%,108%,134%,103%,94.4%,108%,104%,109%,94.5%,72.8%,109%,65%,110%,134%,98%,99.3%,108%
CNNCc1ccc(C(=O)NC(C)C)cc1 [Procarbazine] (1000 nM),78.5%,102%,107%,105%,98.7%,101%,102%,109%,98.1%,104%,94.8%,104%,103%,105%,110%,104%,105%,100%,101%,103%,106%,104%,107%,95%,95.4%,101%,101%,123%,104%,104%,104%,105%,98%,84%,70.8%,–,107%
O=C1NC(=O)[C@@H](c2cn3c4c(cccc24)CCC3)[C@@H]1c1c[nH]c2ccccc12 [Tivantinib] (100 nM),115%,103%,99.2%,97.7%,92.4%,127%,89.5%,94.6%,106%,93.9%,96.5%,96.9%,105%,94.6%,92%,98%,96.1%,77.3%,99%,103%,97.9%,110%,106%,85.6%,93.4%,75%,94.2%,60.7%,98.7%,–,–,100%,91.5%,116%,104%,89.4%,113%
